Experimental data as given in patent US20040171613A1, “Therapeutic agent for non-immediate type allergic diseases” (JAPAN TOBACCO INC., priority 2001, published 2004).

Experiments:
CB2 = CB2 (Homo sapiens, UniProt P34972); assay: cAMP production in forskolin-stimulated hCB2-expressing CHO cells; type: cell-based; design: expressed in transfected cells; host or cells: CHO cells
[1] = tested on: IgE-dependent allergic dermatitis; assay: murine IgE-dependent allergic dermatitis (triphase ear swelling); type: in vivo, mouse; settings: oral 10 mg/kg
Method: A model was produced by passive sensitization of a mouse with IgE and repeated antigen challenge to trigger triphase (early phase, late phase and very late phase) dermatitis (Pharmacology, 60(2), 97-104, February 2000). Relation of mast cells and T cells, as well as invasion of eosinophils in local inflammatory sites is confirmed in these reactions.
In addition, as positive controls, similarly to the test compound, 1 mg/mL ketotifen fumarate (Sigma) and 3 mg/mL pranlukast hydrate (extracted from Onon™ (Ono Pharmaceutical Co., Ltd.)) were prepared. Pranlukast hydrate is used as a leukotriene inhibitor for therapeutic agents for asthma and allergic rhinitis. Ketotifen fumarate is used as a chemical mediator release suppressor for asthma, allergic rhinitis, eczema, dermatitis, urticaria, dermal pruritis and allergic conjunctivitis.
During the period from the antigen application day to the start of the dosing of the test compound, in place of the test compound, only the solvent was orally administered at 10 mL/kg once a day.
FIGS. 4 to 6 show the results of each measurement.

CB1 = CB1 (Homo sapiens, UniProt P21554); settings: from JP-A 2000-256323, Table 33; cited from earlier work
Chain of CB1 (P21554 whole entry, species assumed): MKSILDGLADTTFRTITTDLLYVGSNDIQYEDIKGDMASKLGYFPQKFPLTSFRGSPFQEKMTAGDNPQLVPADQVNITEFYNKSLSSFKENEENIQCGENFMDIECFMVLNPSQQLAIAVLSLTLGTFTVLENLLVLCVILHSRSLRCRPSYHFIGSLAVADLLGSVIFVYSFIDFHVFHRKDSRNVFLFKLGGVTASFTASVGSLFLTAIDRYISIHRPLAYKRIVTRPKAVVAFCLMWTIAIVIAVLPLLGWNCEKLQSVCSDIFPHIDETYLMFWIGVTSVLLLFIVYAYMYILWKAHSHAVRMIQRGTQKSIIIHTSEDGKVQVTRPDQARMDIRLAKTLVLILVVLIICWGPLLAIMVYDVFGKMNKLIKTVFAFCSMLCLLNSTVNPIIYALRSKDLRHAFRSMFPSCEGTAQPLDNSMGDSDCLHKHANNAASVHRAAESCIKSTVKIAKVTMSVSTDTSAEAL

Chain of CB2 (P34972 whole entry): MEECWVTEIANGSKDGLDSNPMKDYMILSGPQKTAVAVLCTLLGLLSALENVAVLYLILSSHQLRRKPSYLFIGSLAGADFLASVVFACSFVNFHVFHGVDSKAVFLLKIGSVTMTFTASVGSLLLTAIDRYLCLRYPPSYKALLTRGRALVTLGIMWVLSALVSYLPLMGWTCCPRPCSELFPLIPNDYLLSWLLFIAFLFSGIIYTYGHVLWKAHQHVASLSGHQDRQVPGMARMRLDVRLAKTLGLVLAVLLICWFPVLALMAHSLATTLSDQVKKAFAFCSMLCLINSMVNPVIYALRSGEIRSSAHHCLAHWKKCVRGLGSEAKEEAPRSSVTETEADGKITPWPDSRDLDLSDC

Question: With CCCCCOc1c(OC)ccc2cc(C(=O)NCc3ccc4c(c3)OCO4)c(=O)[nH]c12 [Compound A, N-(benzo[1,3]dioxol-5-ylmethyl)-7-methoxy-2-oxo-8-pentyloxy-1,2-dihydroquinoline-3-carboxamide] as the compound, how does the “effect on agonistic action of 2-AG-E” value (CB2) read?
Answer: The value was “suppress the agonistic action of 2-AG-E”.

Question: And the cAMP production relative to control at 0.1 µM (CB2; CHO, read-out: Amount of cAMP production compared to control (ratio (%)))?
Answer: Its cAMP production relative to control at 0.1 µM is 430%.

Question: And the “ear swelling, late phase” value ([1]; 24 hours after antigen application)?
Answer: The value was “significantly suppressed ear swelling”.

Question: And the “ear swelling, very late phase” value ([1]; 8 days after antigen application)?
Answer: The value was “significantly suppressed ear swelling”.

Question: And the “ear swelling, very late phase, delayed start of dosing” value ([1]; administration started after the induction of the late phase)?
Answer: The value was “effect of compound A in the very late phase was observed”.

Question: And the “ear swelling, early phase” value ([1]; one hour after antigen application)?
Answer: Its value is “significantly suppressed ear swelling”.

Question: What about the IC50 (CB1) of the same compound?
Answer: The IC50 was 3.44 µM.
